# In PubChem BioAssay AID256 (DTP/NCI, 2004):
# “And” between values parts separate entries of the source, which are not always exact repeats. Equal entries are not always repeated. Toxic doses and inconclusive results are not listed.
# System: CD2F1 mice, L1210 leukemia ip, survival T/C
# Assay: NCI In Vivo Anticancer Drug Screen. Data for tumor model L1210 Leukemia (intraperitoneal) in CD2F1 (CDF1) mice
# Details: higher = longer survival
# Outline: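 In this screen, transplantable tumors were grown in mice given either the compound or its vehicle. Results were expressed as the treated measurement relative to the control measurement.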
# [1] = endpoint: mean survival time, dose: 50.0 mg/kg/injection, schedule: Q01DX009 (ip), vehicle: saline with Tween-80
# [2] = endpoint: mean survival time, dose: 100.0 mg/kg/injection, schedule: Q01DX009 (ip), vehicle: saline with Tween-80
# [3] = endpoint: mean survival time, dose: 200.0 mg/kg/injection, schedule: Q01DX009 (ip), vehicle: saline with Tween-80
# [4] = endpoint: mean survival time, dose: 100.0 mg/kg/injection, schedule: Q04DX003 (ip), vehicle: saline with Tween-80
# [5] = endpoint: mean survival time, dose: 200.0 mg/kg/injection, schedule: Q04DX003 (ip), vehicle: saline with Tween-80
# [6] = endpoint: mean survival time, dose: 400.0 mg/kg/injection, schedule: Q04DX003 (ip), vehicle: saline with Tween-80
# [7] = endpoint: mean survival time, dose: 400.0 mg/kg/injection, schedule: Q01DX009 (ip), vehicle: saline with Tween-80
# [8] = endpoint: mean survival time, dose: 100.0 mg/kg/injection, schedule: Q01DX001 (ip), vehicle: saline with Tween-80
# [9] = endpoint: mean survival time, dose: 100.0 mg/kg/injection, schedule: Q01DX001 (ip), vehicle: saline
# [10] = endpoint: mean survival time, dose: 200.0 mg/kg/injection, schedule: Q01DX001 (ip), vehicle: saline
# [11] = endpoint: mean survival time, dose: 25.0 mg/kg/injection, schedule: Q01DX001 (ip), vehicle: saline with Tween-80
# [12] = endpoint: mean survival time, dose: 25.0 mg/kg/injection, schedule: Q04DX002 (ip), vehicle: saline with Tween-80
# [13] = endpoint: mean survival time, dose: 50.0 mg/kg/injection, schedule: Q04DX002 (ip), vehicle: saline with Tween-80
# [14] = endpoint: mean survival time, dose: 100.0 mg/kg/injection, schedule: Q04DX002 (ip), vehicle: saline with Tween-80
smiles,measurement,setting,value
COc1ccc(/C=C/c2ccc3ccccc3[n+]2C)c(OC)c1OC,T/C,"endpoint: mean survival time, dose: 5.0 mg/kg/injection, schedule: Q01DX009 (ip), vehicle: saline",98 % of control
same,T/C,"endpoint: mean survival time, dose: 10.0 mg/kg/injection, schedule: Q01DX009 (ip), vehicle: saline",86 % of control
O=[N+]([O-])c1ccc(CSc2ncnc3c2ncn3C2OC(COP(=O)(O)O)C(O)C2O)cc1 (stereo not given),T/C,"endpoint: mean survival time, dose: 12.5 mg/kg/injection, schedule: Q01DX005 (ip), vehicle: water",100 % of control
same,T/C,"endpoint: mean survival time, dose: 25.0 mg/kg/injection, schedule: Q01DX005 (ip), vehicle: water",96 % of control
same,T/C,"endpoint: mean survival time, dose: 50.0 mg/kg/injection, schedule: Q01DX005 (ip), vehicle: water",104 % of control
same,T/C,"endpoint: mean survival time, dose: 100.0 mg/kg/injection, schedule: Q01DX005 (ip), vehicle: water",105 % of control
same,T/C,"endpoint: mean survival time, dose: 200.0 mg/kg/injection, schedule: Q01DX005 (ip), vehicle: water",111 % of control
CCCC(N)C(=O)O (stereo not given),T/C,[1],106 % of control
same,T/C,[2],98 % of control
same,T/C,[3],104 % of control
Cc1ccc2[nH]c(=O)oc(=O)c2c1,T/C,[4],104 % of control
same,T/C,[5],98 % of control
same,T/C,[6],106 % of control
Nc1nc(N)c(N=Nc2ccc(SCC(=O)O)cc2)c(=O)[nH]1,T/C,[2],100 % of control
same,T/C,[3],94 % of control
same,T/C,[7],101 % of control
O=S(=O)(O)O.[NH-]C1CCCCC1C1CCCCC1[NH-].[Pt+2] (stereo not given),T/C,"endpoint: mean survival time, dose: 3.12 mg/kg/injection, schedule: Q04DX003 (ip), vehicle: distilled water + Tween-80",119 % of control
same,T/C,"endpoint: mean survival time, dose: 12.5 mg/kg/injection, schedule: Q04DX003 (ip), vehicle: distilled water + Tween-80",156 % of control
COc1ccc(OC)c(Cc2cnc3nc(N)nc(N)c3c2C)c1,T/C,"endpoint: median survival time, dose: 2.5 mg/kg/injection, schedule: Q01DX009 (ip), vehicle: dextrose",103 % of control
same,T/C,"endpoint: median survival time, dose: 5.0 mg/kg/injection, schedule: Q01DX009 (ip), vehicle: dextrose",101 % of control and 102 % of control
same,T/C,"endpoint: median survival time, dose: 6.25 mg/kg/injection, schedule: Q01DX009 (ip), vehicle: water",95 % of control
same,T/C,"endpoint: median survival time, dose: 10.0 mg/kg/injection, schedule: Q01DX009 (ip), vehicle: dextrose",101 % of control and 102 % of control
same,T/C,"endpoint: median survival time, dose: 12.5 mg/kg/injection, schedule: Q01DX009 (ip), vehicle: water",98 % of control
same,T/C,"endpoint: median survival time, dose: 20.0 mg/kg/injection, schedule: Q01DX009 (ip), vehicle: dextrose",106 % of control and 112 % of control
same,T/C,"endpoint: median survival time, dose: 25.0 mg/kg/injection, schedule: Q01DX009 (ip), vehicle: water",111 % of control
same,T/C,"endpoint: median survival time, dose: 50.0 mg/kg/injection, schedule: Q01DX009 (ip), vehicle: water",151 % of control
same,T/C,"endpoint: median survival time, dose: 80.0 mg/kg/injection, schedule: Q01DX009 (ip), vehicle: dextrose",103 % of control
same,T/C,"endpoint: median survival time, dose: 100.0 mg/kg/injection, schedule: Q01DX009 (ip), vehicle: water",88 % of control
Cc1cn(C2CC(O)C(COP(N)(N)=O)O2)c(=O)[nH]c1=O (stereo not given),T/C,"endpoint: mean survival time, dose: 12.5 mg/kg/injection, schedule: Q01DX005 (ip), vehicle: distilled water + Tween-80",98 % of control
same,T/C,"endpoint: mean survival time, dose: 25.0 mg/kg/injection, schedule: Q01DX005 (ip), vehicle: distilled water + Tween-80",98 % of control
same,T/C,"endpoint: mean survival time, dose: 50.0 mg/kg/injection, schedule: Q01DX005 (ip), vehicle: distilled water + Tween-80",98 % of control
same,T/C,"endpoint: mean survival time, dose: 100.0 mg/kg/injection, schedule: Q01DX005 (ip), vehicle: distilled water + Tween-80",96 % of control
same,T/C,"endpoint: mean survival time, dose: 200.0 mg/kg/injection, schedule: Q01DX005 (ip), vehicle: distilled water + Tween-80",98 % of control
CC(C)(CO)C(O)C(=O)NCCS(=O)(=O)c1ccc(F)cc1 (stereo not given),T/C,[8],105 % of control
same,T/C,[2],89 % of control
same,T/C,"endpoint: mean survival time, dose: 200.0 mg/kg/injection, schedule: Q01DX001 (ip), vehicle: saline with Tween-80",95 % of control
same,T/C,[3],89 % of control
same,T/C,"endpoint: mean survival time, dose: 400.0 mg/kg/injection, schedule: Q01DX001 (ip), vehicle: saline with Tween-80",100 % of control
CC(=O)Oc1ccccc1C(CC(C)C)OC(C)=O (stereo not given),T/C,[9],96 % of control
same,T/C,[10],96 % of control
Cc1ccc(NC(=O)COc2ccc(Cl)cc2Cl)cc1Cl,T/C,[4],93 % of control
same,T/C,[5],98 % of control
same,T/C,[6],88 % of control
CC(=O)OCC1OC(N=C=S)C(OC(C)=O)C(OC(C)=O)C1OC(C)=O (stereo not given),T/C,[1],115 % of control
CCN(N=O)C(=O)N(Cc1ccccc1)Cc1ccccc1,T/C,"endpoint: mean survival time, dose: 25.0 mg/kg/injection, schedule: Q01DX009 (ip), vehicle: other",94 % of control
same,T/C,"endpoint: mean survival time, dose: 50.0 mg/kg/injection, schedule: Q01DX009 (ip), vehicle: other",94 % of control
same,T/C,"endpoint: mean survival time, dose: 100.0 mg/kg/injection, schedule: Q01DX009 (ip), vehicle: other",96 % of control
same,T/C,"endpoint: mean survival time, dose: 200.0 mg/kg/injection, schedule: Q01DX009 (ip), vehicle: other",96 % of control
CC1(C)CCC(CC(=O)O)(CC(=O)O)CC1,T/C,[2],105 % of control
same,T/C,[3],104 % of control
same,T/C,[7],104 % of control
CCC(=O)OC1(c2ccccc2)CCN(CCCc2ccccc2Cl)CC1,T/C,[11],108 % of control
same,T/C,[12],95 % of control
same,T/C,"endpoint: mean survival time, dose: 50.0 mg/kg/injection, schedule: Q01DX001 (ip), vehicle: saline with Tween-80",100 % of control
same,T/C,[13],98 % of control
same,T/C,[8],96 % of control and 98 % of control
same,T/C,[14],95 % of control
O=C1CCc2ccsc21,T/C,[12],98 % of control
same,T/C,[13],91 % of control
same,T/C,[14],106 % of control
CC(C)CCCC(C)C1CCC2C3=CCC4CC(OC(=O)CCC(C)C)CCC4(C)C3CCC21C (stereo not given),T/C,[4],101 % of control
same,T/C,[5],96 % of control
same,T/C,[6],104 % of control
CCCCOC(N)=O,T/C,[2],100 % of control
same,T/C,[3],105 % of control
same,T/C,[7],97 % of control
O=c1[nH]cnc2[nH]ccc12,T/C,"endpoint: mean survival time, dose: 75.0 mg/kg/injection, schedule: Q01DX001 (ip), vehicle: saline",110 % of control
same,T/C,"endpoint: mean survival time, dose: 150.0 mg/kg/injection, schedule: Q01DX001 (ip), vehicle: saline",96 % of control
O=C(CI)NCc1cn(C2CC(O)C(CO)O2)c(=O)[nH]c1=O (stereo not given),T/C,"endpoint: mean survival time, dose: 4.0 mg/kg/injection, schedule: Q01DX005 (ip), vehicle: water",106 % of control
same,T/C,"endpoint: mean survival time, dose: 8.0 mg/kg/injection, schedule: Q01DX005 (ip), vehicle: water",114 % of control
same,T/C,"endpoint: mean survival time, dose: 16.0 mg/kg/injection, schedule: Q01DX005 (ip), vehicle: water",106 % of control
same,T/C,"endpoint: mean survival time, dose: 32.0 mg/kg/injection, schedule: Q01DX005 (ip), vehicle: water",111 % of control
same,T/C,"endpoint: mean survival time, dose: 64.0 mg/kg/injection, schedule: Q01DX005 (ip), vehicle: water",114 % of control
CC1OC(c2cnn(-c3ccccc3)n2)C(O)C1O (stereo not given),T/C,"endpoint: median survival time, dose: 12.5 mg/kg/injection, schedule: Q01DX005 (ip), vehicle: water",103 % of control
same,T/C,"endpoint: median survival time, dose: 25.0 mg/kg/injection, schedule: Q01DX005 (ip), vehicle: water",102 % of control
same,T/C,"endpoint: median survival time, dose: 50.0 mg/kg/injection, schedule: Q01DX005 (ip), vehicle: water",103 % of control
same,T/C,"endpoint: median survival time, dose: 100.0 mg/kg/injection, schedule: Q01DX005 (ip), vehicle: water",100 % of control
same,T/C,"endpoint: median survival time, dose: 200.0 mg/kg/injection, schedule: Q01DX005 (ip), vehicle: water",103 % of control
COP(=O)(OC)C(=O)c1cccc2ccccc12,T/C,[4],95 % of control
same,T/C,[5],93 % of control
same,T/C,[6],96 % of control
CN1CCC23CC=CCC2C1Cc1ccc([N+](=O)[O-])cc13 (stereo not given),T/C,"endpoint: mean survival time, dose: 6.25 mg/kg/injection, schedule: Q01DX001 (ip), vehicle: saline with Tween-80",103 % of control
same,T/C,"endpoint: mean survival time, dose: 12.5 mg/kg/injection, schedule: Q01DX001 (ip), vehicle: saline with Tween-80",105 % of control
same,T/C,[11],105 % of control
CC(=O)OC1(/N=[N+](/C)[O-])CCCC1,T/C,"endpoint: mean survival time, dose: 50.0 mg/kg/injection, schedule: Q04DX003 (ip), vehicle: saline with Tween-80",167 % of control
same,T/C,[4],95 % of control
O=S(=O)(O)Cc1ccccc1O,T/C,[9],100 % of control
same,T/C,"endpoint: mean survival time, dose: 100.0 mg/kg/injection, schedule: Q04DX003 (ip), vehicle: saline",96 % of control
same,T/C,[10],100 % of control
same,T/C,"endpoint: mean survival time, dose: 200.0 mg/kg/injection, schedule: Q04DX003 (ip), vehicle: saline",95 % of control
same,T/C,"endpoint: mean survival time, dose: 400.0 mg/kg/injection, schedule: Q01DX001 (ip), vehicle: saline",102 % of control
same,T/C,"endpoint: mean survival time, dose: 400.0 mg/kg/injection, schedule: Q04DX003 (ip), vehicle: saline",89 % of control
COc1ccccc1NC(=O)Nc1ccc(C(=O)OCC(C)C)cc1,T/C,[2],89 % of control
same,T/C,[4],92 % of control
same,T/C,[3],88 % of control
same,T/C,[5],88 % of control
same,T/C,[6],86 % of control
CC(C)c1ccc(C(=O)CCCCl)cc1,T/C,[2],98 % of control
same,T/C,[3],97 % of control
same,T/C,[7],97 % of control
